Assay results published in patent US20230149409A1, “TREATMENT OF HUMAN PAPILLOMAVIRUS-ASSOCIATED CANCERS BY PD-L1 INHIBITORS” (priority 2021, published 2023).
Values belong to the molecule of their own block, whether it stands above or below them.

Columns and labels:
[1] = biological target: T1, PD-⅟PD-L1 (recombinant human PD-L1 protein and human PD-1 protein) (Homo sapiens, UniProt Q9NZQ7); assay: Homogeneous Time-Resolved Fluorescence (HTRF) PD-1/PD-L1 binding assay; settings: 3 nM PD1, 10 nM PD-L1, 25° C., PBS pH 7.4
T1 construct: Recombinant human PD-L1 protein (19-238) with a His-tag at the C-terminus; purchased AcroBiosystems PD1-H5229 (PD-L1); PD1-H5257 (PD-1)
T1 sequence (Q9NZQ7 19-238): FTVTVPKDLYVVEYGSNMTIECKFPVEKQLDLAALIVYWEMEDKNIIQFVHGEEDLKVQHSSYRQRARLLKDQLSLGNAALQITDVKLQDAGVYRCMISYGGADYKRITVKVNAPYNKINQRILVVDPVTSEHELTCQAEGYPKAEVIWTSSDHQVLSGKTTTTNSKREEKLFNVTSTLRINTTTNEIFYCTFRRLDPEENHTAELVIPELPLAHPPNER

[2] = tested on: select advanced solid tumors (HPV+ carcinomas); assay: Phase 1 open-label clinical trial of Compound 24; assay type: in vivo, human; parameters: key: complete response (CR); partial response (PR); stable disease (SD); progressive disease (PD)
Excerpt: Two open-label, nonrandomized, global multicenter Phase 1 studies in participants with select advanced solid tumors are being conducted for Compounds 24 and 30 in Table 1 supra. In addition to the primary endpoint of determining safety, tolerability, PAD and/or maximum tolerated dose (MTD) of each compound, the studies are exploring preliminary efficacy (complete response (CR), partial response (PR), stable disease (SD), or progressive disease (PD)) in participants with select advanced cancers, including virally mediated tumors such as HPV+ carcinomas. HPV+ tumors can be determined by a local laboratory using p16 IHC, polymerase chain reaction methods, or other locally-available method to detect HPV. Results for patients having solid tumors whose HPV+ status was confirmed, suspected or negative are shown below for Compound 24 and Compound 30 in Tables 4 and 5, respectively.

[3] = biological target: T2, PD-L1 on CD14+ cells in human whole blood (Homo sapiens, UniProt Q9NZQ7); assay: PD-L1 whole blood internalization assay; assay type: cell-based; settings: 1 ng/mL interferon γ, CD14+ gated, 24 hour
T2 construct: Cells were gated on CD14+ (BD Biosciences) and PD-L1 expression determined by mean fluorescence intensity; host or cells: CD14+ cells in normal human whole blood, stimulated with human interferon gamma
T2 sequence (Q9NZQ7 19-290): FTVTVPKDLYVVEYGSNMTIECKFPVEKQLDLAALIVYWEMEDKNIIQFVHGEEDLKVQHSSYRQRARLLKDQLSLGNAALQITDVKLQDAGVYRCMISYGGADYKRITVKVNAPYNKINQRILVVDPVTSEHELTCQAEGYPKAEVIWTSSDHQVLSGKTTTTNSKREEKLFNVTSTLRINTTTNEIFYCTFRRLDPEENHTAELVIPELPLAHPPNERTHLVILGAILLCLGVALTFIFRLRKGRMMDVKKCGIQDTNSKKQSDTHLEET
How it was run: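 Normal human whole blood exposed to compound concentration range plus 1 ng/mL IFN-γ for 18–20 h at 37 °C, then stained for PD-L1 and CD14, red cells lysed/fixed. PD-L1 MFI measured on CD14+ gated cells by flow cytometry; IC50 from percent inhibition versus log concentration fit.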

[4] = tested on: PD-L1 (U2OS/PD-L1 cells, Jurkat-PD-1-SHP cells); assay: Src Homology Region 2 Domain-containing Phosphatase (SHP) assay; assay type: cell-based; settings: Homo sapiens; U2OS/PD-L1 + Jurkat-PD-1-SHP cells, 2 hours
How it was run: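 U2OS/PD-L1 cells and Jurkat-PD-1-SHP cells (5,000 each per well) were co-incubated with compound in RPMI1640/1% FBS for 2 h at 37° C, with final DMSO 0.05%. PathHunter chemiluminescence was read after 1 h at room temperature. IC50 was fitted from percent of DMSO-control activity against log concentration.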

[5] = tested on: PD-L1 (PD-L1 aAPC/CHO-K1 cells, Jurkat-PD-1-NFAT effector cells); assay: Nuclear Factor of Activated T-cells (NFAT) assay; assay type: cell-based; settings: Cricetulus griseus; PD-L1 aAPC/CHO-K1 + Jurkat-PD-1-NFAT cells, 24 hours
How it was run: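 PD-L1 aAPC/CHO-K1 cells (8000/well) were treated with compound (0.4% DMSO, 2 µM final), then co-cultured with Jurkat-PD-1-NFAT effector cells for 24 hours at 37° C. NFAT luciferase luminescence was normalized to DMSO as fold induction. Maximum induction is relative to the control compound's top FOI; EC50 is from curve fitting.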

SMILES: Cc1c(Nc2nc(C(F)F)nc3cc(CN4CC[C@@H](O)C4)cnc23)cccc1-c1cccc(-c2nc3cc(CN4CCC(C(=O)O)CC4)cc(C#N)c3o2)c1C [Compound 24]
IC50 [1]: < 10 nM
Best Overall Response ([2]; Patient 1, 200 mg QD, Cervical cancer (AC), HPV/p16 status Not determined): SD
Best Overall Response ([2]; Patient 2, 200 mg BID, Cervical cancer (clear cell), HPV/p16 status Not determined): PD
Best Overall Response ([2]; Patient 3, 400 mg BID, Anal carcinoma, HPV 16 positive): SD
Best Overall Response ([2]; Patient 4, 400 mg BID, Anal carcinoma, HPV 16 positive): SD
Best Overall Response ([2]; Patient 5, 300 mg BID, Vaginal cancer (SCC), HPV 16 positive): SD
Best Overall Response ([2]; Patient 6, 400 mg BID, Cervical cancer (SCC), HPV 16 positive): PR
Best Overall Response ([2]; Patient 7, 200 mg BID, Anal carcinoma (SCC), Positive unknown type): PD
Best Overall Response ([2]; Patient 8, 400 mg BID, Anal carcinoma, HPV 16 positive): PD
Best Overall Response ([2]; Patient 9, 600 mg QD, Anal carcinoma (rectovaginal), HPV 16,33,31 positive): SD
Best Overall Response ([2]; Patient 10, 400 mg BID, Cervical cancer (AC), HPV 16 positive): SD
Best Overall Response ([2]; Patient 11, 400 mg BID, Anal carcinoma (SCC), HPV/p16 status Not determined): PR
Best Overall Response ([2]; Patient 12, 600 mg QD, Anal carcinoma (SCC), HPV/p16 status Not determined): SD
Best Overall Response ([2]; Patient 13, 400 mg BID, Rectovaginal septum (SCC), P16+, HPV 16): PD
Best Overall Response ([2]; Patient 14, 600 mg QD, Anal carcinoma, HPV 16): PD
Best Overall Response ([2]; Patient 15, 800 mg QD, Anal carcinoma, HPV 16): PD
Best Overall Response ([2]; Patient 16, 800 mg QD, Vulvar (SCC), HPV/p16 status Not determined): PD
Best Overall Response ([2]; Patient 18, 800 mg QD, Cervical cancer (SCC), P16 positive): PD
Best Overall Response ([2]; Patient 19, 800 mg QD, Anal cancer, HPV 16 positive): PD
Best Overall Response ([2]; Patient 20, 800 mg QD, Anal cancer, HPV 16 positive): PD
Best Overall Response ([2]; Patient 21, 300 mg BID, Anal cancer, HPV 16): SD
IC50 [3]: < 100 nM

IC50 [1]: < 10 nM
IC50 [4]: < 10 nM
IC50 [3]: < 100 nM
SMILES: Cn1c(C(=O)Nc2cccc(-c3cccc(NC(=O)c4nc5c(n4C)CCN(CCC46CCC(C(=O)O)(CC4)C6)C5)c3C#N)c2Cl)nc2c1CCN(CCC13CCC(C(=O)O)(CC1)C3)C2 [Compound 33, 4,4′-(((((2-chloro-2′-cyano-[1,1′-biphenyl]-3,3′-diyl)bis(azanediyl))bis(carbonyl))bis(1-methyl-1,4,6,7-tetrahydro-5H-imidazo[4,5-c]pyridine-2,5-diyl))bis(ethane-2,1-diyl))bis(bicyclo[2.2.1]heptane-1-carboxylic acid)]
EC50 [5]: < 100 nM
